Test results from patent publication US20250188060A1, “ALPHA1A-ADRENERGIC RECEPTOR AGONISTS AND METHODS OF USE” (CuraSen Therapeutics, Inc., priority 2022, published 2025).
Like-named read-outs stand apart in the source and are kept apart here.

Molecular target: T1, α1A-ARs (Homo sapiens, UniProt P35348)
T1 sequence (P35348 1-466): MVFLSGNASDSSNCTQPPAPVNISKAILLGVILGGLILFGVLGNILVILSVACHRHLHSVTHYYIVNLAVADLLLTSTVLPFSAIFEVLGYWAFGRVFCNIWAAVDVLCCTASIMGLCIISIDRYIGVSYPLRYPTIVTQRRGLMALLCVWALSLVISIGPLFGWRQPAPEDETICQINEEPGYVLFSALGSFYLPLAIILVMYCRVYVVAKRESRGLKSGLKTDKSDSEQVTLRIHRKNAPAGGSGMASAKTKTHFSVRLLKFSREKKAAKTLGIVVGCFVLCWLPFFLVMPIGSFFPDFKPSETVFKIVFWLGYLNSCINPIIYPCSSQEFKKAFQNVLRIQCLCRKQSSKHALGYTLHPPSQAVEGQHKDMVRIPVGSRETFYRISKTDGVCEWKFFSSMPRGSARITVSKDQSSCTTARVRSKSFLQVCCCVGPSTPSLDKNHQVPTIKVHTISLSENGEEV
Assay: Calcium flux assay (Calcium 6 dye) in cells expressing an α1-AR
Type: cell-based
Details: for Emax: read-out: Average Emax (% epi); for EC50: read-out: Average pEC50 (converted)
Description: Calcium flux experimental design: alpha-1 adrenergic receptors (α1-ARs) couple to Gq proteins, which results in downstream activation of phospholipase C and release of calcium from intracellular stores. Intracellular calcium increase upon α1-AR activation can be detected by Calcium 6 dye.
Cell preparation: cells expressing an α1-AR were washed in warmed phosphate-buffered saline to remove medium and harvested using versene (Caisson Labs, catalog #EDL01).
Media was removed from cells by tapping plates upside-down on absorbent wipes, followed by 15 second upside-down 50×g centrifugation, again on absorbent wipes. 12 μL cell dye solution was added to cells using a reagent dispenser (Integra viaFILL) and cells were incubated for 90 minutes at 37° C., 5% CO2.
Compound preparation: candidate alpha-adrenergic compounds, dissolved to 10 mM in DMSO, were diluted in assay buffer (HBSS/HEPES containing 2 mM CaCl2) and 2 mM probenecid sodium salt). […] On all assay plates, vehicle (DMSO) and positive control (10 μM epinephrine) conditions were included on the plate, as well as a dose-response curve of epinephrine. […] 384 well compound plates were centrifuged briefly at 250×g, sealed (Axygen PCR-SP) and incubated at 37° C. until the 90 minute cell dye incubation was complete.
Calcium 6 stained cells and 384 well compound plates were loaded onto the Flexstation and incubated on the machine for 5 minutes before initiating the assay.
For each assay well, baseline Calcium 6 fluorescence was detected for 18 seconds prior to 12 μL compound addition at 12 μL per second. Changes in Calcium 6 fluorescence were detected for a further 22 seconds, for a total read time of 40 seconds. All detection was performed with medium gain sensitivity, bottom read, with 6 flashes per read.
Data analysis: for calcium flux, analysis of maximum change from baseline over the 40-second read time was determined using Softmax Pro and data was exported as raw text files. Potency estimates (EC50) were derived from dose response curves (maximum change from baseline versus the log concentration of test compound) fit by four-parameter nonlinear regression using Graphpad Prism. Efficacy was determined by comparing the magnitude of the test compound signal window (fitted curve max−min) with the signal window of the full agonist control, epinephrine. […] All experiments were repeated a minimum of three times, with the average (mean) potency and maximum effect relative to the within-plate full agonist dose-response comparator reported.

[1] = α1A-AR calcium flux, mean of at least three experiments
[2] = α1A-AR calcium flux, relative to full agonist epinephrine, mean of at least three experiments

SMILES: Clc1cccc2c(C3CC3)cn(CC3=NCCN3)c12 [Compound 3]
- Emax: 21 to 60%
- EC50 [1]: < 9.77 nM

SMILES: Clc1cn(-c2cn[nH]c2)c2cc(CC3=NCCN3)ccc12 [Compound 4]
- EC50 [1]: > 1000 nM
- Emax [2]: < 20%

SMILES: Cc1cn(CC2=NCCN2)c2c(Cl)ccc(C(C)C)c12 [Compound 5]
- Emax: > 61%
- EC50 [1]: 10 to 977 nM

SMILES: COc1ccc(C(C)C)c2ccn(CC3=NCCN3)c12 [Compound 7]
- Emax: > 61%
- EC50 [1]: 10 to 977 nM

SMILES: Fc1cc(Cl)c2c(c1)c(C1CC1)cn2CC1=NCCN1 [Compound 8]
- Emax: < 20%
- EC50 [1]: 10 to 977 nM

SMILES: CC(C)c1ccc(Cl)c2c1c(S(C)(=O)=O)cn2CC1=NCCN1 [Compound 9]
- EC50 [1]: > 1000 nM
- Emax [2]: < 20%

SMILES: Cc1cc2c(C(C)C)ccc(Cl)c2n1CC1=NCCN1 [Compound 10]
- Emax: > 61%
- EC50 [1]: 10 to 977 nM

SMILES: Fc1cc(F)c2c(c1)c(C1CC1)cn2CC1=NCCN1 [Compound 11]
- Emax: > 61%
- EC50 [1]: < 9.77 nM

SMILES: Fc1ccc2c(C3CC3)cn(CC3=NCCN3)c2c1Cl [Compound 12]
- Emax: 21 to 60%
- EC50 [1]: < 9.77 nM

SMILES: Clc1cccc2ccn(CC3=NCCN3)c12 [Compound 13]
- Emax: 21 to 60%
- EC50 [1]: 10 to 977 nM

SMILES: Clc1cccc2c(-c3cccnc3)nn(CC3=NCCN3)c12 [Compound 14]
- EC50 [1]: > 1000 nM
- Emax [2]: < 20%

SMILES: Clc1cccc2cnn(CC3=NCCN3)c12 [Compound 15]
- Emax: < 20%
- EC50 [1]: > 1000 nM

SMILES: CC(C)(C)c1nn(CC2=NCCN2)c2c(Cl)cccc12 [Compound 16]
- Emax: < 20%
- EC50 [1]: > 1000 nM

SMILES: Cc1cn(CC2=NCCN2)c2c(Cl)cccc12 [Compound 17]
- Emax: > 61%
- EC50 [1]: < 9.77 nM

SMILES: N#Cc1cn(CC2=NCCN2)c2c(Cl)cccc12 [Compound 18]
- Emax: > 61%
- EC50 [1]: 10 to 977 nM

SMILES: Cc1cc2cccc(Cl)c2n1CC1=NCCN1 [Compound 19]
- Emax: < 20%
- EC50 [1]: > 1000 nM

SMILES: Clc1nn(CC2=NCCN2)c2c(Cl)cccc12 [Compound 20]
- Emax: > 61%
- EC50 [1]: 10 to 977 nM

SMILES: Fc1cc(Cl)c2c(c1)c(Cl)nn2CC1=NCCN1 [Compound 23]
- Emax: > 61%
- EC50 [1]: 10 to 977 nM

SMILES: Fc1ccc2c(Cl)nn(CC3=NCCN3)c2c1Cl [Compound 24]
- Emax: > 61%
- EC50 [1]: 10 to 977 nM

SMILES: FC(F)(F)c1nn(CC2=NCCN2)c2c(Cl)cccc12 [Compound 25]
- Emax: 21 to 60%
- EC50 [1]: 10 to 977 nM

SMILES: Fc1cccc2c(Cl)nn(CC3=NCCN3)c12 [Compound 26]
- Emax: 21 to 60%
- EC50 [1]: 10 to 977 nM

SMILES: FC(F)(F)c1cccc2c(Cl)nn(CC3=NCCN3)c12 [Compound 27]
- Emax: > 61%
- EC50 [1]: 10 to 977 nM

SMILES: Cc1ccnc2c(Cl)nn(CC3=NCCN3)c12 [Compound 30]
- Emax: > 61%
- EC50 [1]: 10 to 977 nM

SMILES: Clc1ccc2c(c1)c(Cl)nn2CC1=NCCN1 [Compound 31]
- Emax: 21 to 60%
- EC50 [1]: > 1000 nM

SMILES: Clc1ccc2c(Cl)nn(CC3=NCCN3)c2c1 [Compound 32]
- Emax: > 61%
- EC50 [1]: 10 to 977 nM

SMILES: Clc1nn(CC2=NCCN2)c2c(-n3cccc3)cccc12 [Compound 33]
- EC50 [1]: 10 to 977 nM
- Emax [2]: > 61%

SMILES: Clc1nn(CC2=NCCN2)c2c(-c3ccccc3)cccc12 [Compound 34]
- EC50 [1]: 10 to 977 nM
- Emax [2]: 21 to 60%

SMILES: Clc1nn(CC2=NCCN2)c2c(-n3cccn3)cccc12 [Compound 36]
- EC50 [1]: 10 to 977 nM
- Emax [2]: 21 to 60%

SMILES: FC(F)(F)Oc1cccc2c(Cl)nn(CC3=NCCN3)c12 [Compound 37]
- EC50 [1]: 10 to 977 nM
- Emax [2]: > 61%

SMILES: CC(C)Oc1cccc2c(Cl)nn(CC3=NCCN3)c12 [Compound 38]
- Emax: 21 to 60%
- EC50 [1]: > 1000 nM

SMILES: CC(F)(F)c1cccc2c(Cl)nn(CC3=NCCN3)c12 [Compound 39]
- Emax: 21 to 60%
- EC50 [1]: 10 to 977 nM

SMILES: CCc1cccc2c(Cl)nn(CC3=NCCN3)c12 [Compound 40]
- Emax: > 61%
- EC50 [1]: 10 to 977 nM

SMILES: Clc1cccc2c(-c3ccccc3)nn(CC3=NCCN3)c12 [Compound 42]
- EC50 [1]: > 1000 nM
- Emax [2]: 21 to 60%

SMILES: FC(F)c1cccc2c(Cl)nn(CC3=NCCN3)c12 [Compound 43]
- Emax: < 20%
- EC50 [1]: > 1000 nM

SMILES: Clc1cccc2c1c(Cl)nn2CC1=NCCN1 [Compound 45]
- Emax: < 20%
- EC50 [1]: > 1000 nM

SMILES: Cc1cc(Cl)cc2c(Cl)nn(CC3=NCCN3)c12 [Compound 46]
- Emax: > 61%
- EC50 [1]: 10 to 977 nM

SMILES: CC(C)c1cccc2c(Cl)nn(CC3=NCCN3)c12 [Compound 47]
- Emax: > 61%
- EC50 [1]: 10 to 977 nM

SMILES: Clc1nn(CC2=NCCN2)c2c(-c3ccccn3)cccc12 [Compound 48]
- EC50 [1]: 10 to 977 nM
- Emax [2]: 21 to 60%

SMILES: Clc1cccc2c(-c3ccncc3)nn(CC3=NCCN3)c12 [Compound 49]
- EC50 [1]: 10 to 977 nM
- Emax [2]: 21 to 60%

SMILES: Cc1cc(F)cc2c(Cl)nn(CC3=NCCN3)c12 [Compound 50]
- Emax: < 20%
- EC50 [1]: > 1000 nM

SMILES: Clc1cccc2c(-c3ccccn3)nn(CC3=NCCN3)c12 [Compound 51]
- EC50 [1]: 10 to 977 nM
- Emax [2]: 21 to 60%

SMILES: Clc1nn(CC2=NCCN2)c2c(-c3cnccn3)cccc12 [Compound 52]
- EC50 [1]: > 1000 nM
- Emax [2]: < 20%

SMILES: FC(F)(F)Cc1cccc2c(Cl)nn(CC3=NCCN3)c12 [Compound 53]
- EC50 [1]: > 1000 nM
- Emax [2]: 21 to 60%

SMILES: Clc1cccc2c(C3=CCOCC3)nn(CC3=NCCN3)c12 [Compound 54]
- EC50 [1]: > 1000 nM
- Emax [2]: 21 to 60%

SMILES: Clc1cccc2c(-c3ncco3)nn(CC3=NCCN3)c12 [Compound 55]
- EC50 [1]: > 1000 nM
- Emax [2]: < 20%

SMILES: Clc1cccc2c(N3CCCC3)nn(CC3=NCCN3)c12 [Compound 56]
- EC50 [1]: > 1000 nM
- Emax [2]: < 20%

SMILES: Clc1cccc2c(-n3cccc3)nn(CC3=NCCN3)c12 [Compound 58]
- EC50 [1]: 10 to 977 nM
- Emax [2]: > 61%

SMILES: Clc1nn(CC2=NCCN2)c2c(-c3ccon3)cccc12 [Compound 59]
- EC50 [1]: > 1000 nM
- Emax [2]: < 20%

SMILES: Clc1cccc2c(-n3cccn3)nn(CC3=NCCN3)c12 [Compound 60]
- EC50 [1]: > 1000 nM
- Emax [2]: > 61%

SMILES: Cc1cccc2c(C(F)(F)F)nn(CC3=NCCN3)c12 [Compound 61]
- Emax: < 20%
- EC50 [1]: > 1000 nM

SMILES: Cc1cccc2c(C(C)(F)F)nn(CC3=NCCN3)c12 [Compound 62]
- Emax: > 61%
- EC50 [1]: 10 to 977 nM

SMILES: Clc1cccc2c(-c3ccon3)nn(CC3=NCCN3)c12 [Compound 63]
- EC50 [1]: 10 to 977 nM
- Emax [2]: > 61%

SMILES: FC(F)(F)c1cc(Cl)cc2c(Cl)nn(CC3=NCCN3)c12 [Compound 64]
- EC50 [1]: > 1000 nM
- Emax [2]: < 20%

SMILES: Fc1cc(C(F)(F)F)c2c(c1)c(Cl)nn2CC1=NCCN1 [Compound 65]
- EC50 [1]: 10 to 977 nM
- Emax [2]: > 61%

SMILES: Cc1cc(Cl)cc2c(N3CCCC3)nn(CC3=NCCN3)c12 [Compound 66]
- EC50 [1]: 10 to 977 nM
- Emax [2]: 21 to 60%

SMILES: Clc1nn(CC2=NCCN2)c2c(N3CCCC3)cccc12 [Compound 67]
- EC50 [1]: > 1000 nM
- Emax [2]: 21 to 60%

SMILES: Cc1cccc2c(N3CCCCC3)nn(CC3=NCCN3)c12 [Compound 68]
- EC50 [1]: > 1000 nM
- Emax [2]: < 20%

SMILES: Cc1cc(Cl)cc2c(N3CCCCC3)nn(CC3=NCCN3)c12 [Compound 69]
- EC50 [1]: > 1000 nM
- Emax [2]: < 20%

SMILES: Clc1nn(CC2=NCCN2)c2c(N3CCCCC3)cccc12 [Compound 70]
- EC50 [1]: 10 to 977 nM
- Emax [2]: 21 to 60%

SMILES: FC(F)(F)c1cccc2c(N3CCCC3)nn(CC3=NCCN3)c12 [Compound 71]
- EC50 [1]: > 1000 nM
- Emax [2]: < 20%
